Data set [1] can be described thus: Stability of compounds in plasma (HPLC). To be noted: for recovery in plasma determined by HPLC: 37° C., over a period of 2 hours. The procedure: Further, the stability of compounds in plasma was determined as prerequisite for drug-likeness. Briefly, after spiking the chemical entities, the plasma was incubated at 37° C. At certain time points (e.g. at 15 and 120 minutes), 3 vol. cold MeOH were added to extract the compounds. After centrifugation, the supernatant was analyzed by HPLC. The half life was calculated based on the respective calibration curve.

The target of data set [2] is FXIII (Homo sapiens (Human), UniProt P00488). In words: Inhibitory activity against FXIII (isopeptidase assay), Tables 3 and 4.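 Note: FXIIIa activity read with a peptide substrate derived from the α2-antiplasmin N-terminal dodecapeptide, FXIII activated beforehand at room temperature, inhibitor-free wells with DMSO buffer as control.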 To be noted: isopeptidase assay, Table 3; read-out: IC50 [nM] FXIII. It is filed as biochemical.
Chain of FXIII (P00488 39-732): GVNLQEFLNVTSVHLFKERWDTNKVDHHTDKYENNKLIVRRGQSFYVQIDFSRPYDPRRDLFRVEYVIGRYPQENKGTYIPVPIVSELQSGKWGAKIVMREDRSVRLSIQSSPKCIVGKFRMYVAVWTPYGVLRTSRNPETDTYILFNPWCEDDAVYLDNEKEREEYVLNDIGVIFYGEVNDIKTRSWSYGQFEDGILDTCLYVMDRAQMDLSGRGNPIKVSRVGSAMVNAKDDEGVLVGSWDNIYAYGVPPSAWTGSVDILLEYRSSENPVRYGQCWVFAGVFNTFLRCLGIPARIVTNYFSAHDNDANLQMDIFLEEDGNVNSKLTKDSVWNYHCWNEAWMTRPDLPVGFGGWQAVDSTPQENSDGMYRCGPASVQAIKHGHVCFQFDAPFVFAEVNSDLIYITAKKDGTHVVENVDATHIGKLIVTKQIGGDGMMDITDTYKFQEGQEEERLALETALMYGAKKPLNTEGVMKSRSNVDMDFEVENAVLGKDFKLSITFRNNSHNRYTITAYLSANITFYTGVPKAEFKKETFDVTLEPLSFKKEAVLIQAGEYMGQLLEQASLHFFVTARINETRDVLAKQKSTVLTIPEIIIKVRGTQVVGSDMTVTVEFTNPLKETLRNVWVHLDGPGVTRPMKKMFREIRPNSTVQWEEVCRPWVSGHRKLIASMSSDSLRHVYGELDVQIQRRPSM
Description: (§1) FXIIIa activity has been determined using substrate A101 (Zedira GmbH, Darmstadt, Germany), which is based on the N-terminal dodecapeptide of α2-antipiasmin.
(§2) The mixture was incubated for 20 min at room temperature to activate FXIII. […] For measurements without inhibitor, 15 μL of assay buffer/2% (v/v) DMSO were added. All measurements were performed in triplicate. The respective IC50 values were calculated by non-linear regression using the MARS software package (BMG Labtech).
Data set [3] deals with TG2 (Homo sapiens (Human), UniProt P21980). The data set is described as follows: Inhibitory activity against TG2 (isopeptidase assay), Tables 3 and 4. It is filed as biochemical. The conditions noted are these: isopeptidase assay, Table 3; for Selectivity: TG2 versus FXIII; for IC50: read-out: IC50 [nM] TG2.
Chain of TG2 (P21980 whole entry): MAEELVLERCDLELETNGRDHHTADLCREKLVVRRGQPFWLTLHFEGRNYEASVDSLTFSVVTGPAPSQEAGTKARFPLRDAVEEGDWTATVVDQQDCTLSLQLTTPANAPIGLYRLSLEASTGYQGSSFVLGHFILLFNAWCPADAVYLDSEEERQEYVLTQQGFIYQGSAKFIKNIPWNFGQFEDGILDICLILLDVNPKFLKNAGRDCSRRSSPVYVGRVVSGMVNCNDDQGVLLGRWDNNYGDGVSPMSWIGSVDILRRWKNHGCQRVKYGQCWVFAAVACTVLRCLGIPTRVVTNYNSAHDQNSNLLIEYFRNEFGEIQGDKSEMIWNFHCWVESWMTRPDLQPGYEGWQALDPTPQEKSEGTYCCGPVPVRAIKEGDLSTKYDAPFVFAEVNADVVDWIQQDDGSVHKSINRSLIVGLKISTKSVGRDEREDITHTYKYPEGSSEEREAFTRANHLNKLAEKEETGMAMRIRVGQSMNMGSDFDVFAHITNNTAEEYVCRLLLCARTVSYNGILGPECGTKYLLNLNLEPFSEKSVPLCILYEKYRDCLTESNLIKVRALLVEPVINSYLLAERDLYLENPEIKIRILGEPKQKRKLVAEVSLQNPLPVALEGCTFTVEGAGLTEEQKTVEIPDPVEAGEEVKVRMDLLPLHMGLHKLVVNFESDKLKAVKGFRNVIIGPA
Description: as §1, §2

*1 amine or outer side, *2 acyl side, *3 side chain or, on linkers, in order; H or OH if unused. Where a SMILES comes first, the peptide text is derived from it. [ ]: non-standard residue; d: D form. The star is where a group is joined. Benzoyl(3-COOH,5-NO2) = O=C(O)c1cc(C(=O)*)cc([N+](=O)[O-])c1; Nle(5E-ene,6-CO2Et) = CCOC(=O)/C=C/CC[C@H](N)C(=O)O; Isonicotinoyl(3-COOH) = O=C(O)c1cnccc1C(=O)*; X1 = COC(=O)/C=C/CC[C@H](N[*:1])C(=O)[*:2]; X5 = CNC(=O)/C=C/CC[C@H](N[*:1])C(=O)[*:2]; X8 = NC(=O)/C=C/CC[C@H](N[*:1])C(=O)[*:2]; Pro(4-methylene) = C=C1CN[C@H](C(=O)O)C1; X2 = O=C(O)c1cc([N+](=O)[O-])ccc1C(=O)*; Pro(4-oxo) = O=C1CN[C@H](C(=O)O)C1; Thiophene2carbonyl = O=C(c1cccs1)*; Ala(cPr) = N[C@@H](CC1CC1)C(=O)O; Chg = N[C@H](C(=O)O)C1CCCCC1; Tle = CC(C)(C)[C@H](N)C(=O)O; X7 = O=C(O)c1nccnc1C(=O)* Some results are limits rather than exact numbers.

As to `CCOC(=O)/C=C/CC[C@H](NC(=O)c1ccncc1C(=O)O)C(=O)N[C@H](C(=O)N1CC(=O)C[C@H]1C(=O)N[C@H](C(=O)N[C@H](C(N)=O)C1CCCCC1)C1CCCCC1)C(C)(C)C` [8a/b] ({Isonicotinoyl(3-COOH)}-[Nle(5E-ene,6-CO2Et)][Tle][Pro(4-oxo)][Chg][Chg]-NH2), the “recovery in plasma determined by HPLC” value in data set [1] is > 75%. For the same compound, in data set [2], the IC50 (as a rule, the midpoint of a concentration-inhibition curve) worked out at 21 nM. In data set [3], the Selectivity came out at 19.9 and the IC50 came out at 417 nM.

`CC(C)(C)[C@H](NC(=O)[C@H](CC/C=C/C(N)=O)NC(=O)c1ccncc1C(=O)O)C(=O)N1CC(=O)C[C@H]1C(=O)N[C@H](C(=O)N[C@H](C(N)=O)C1CCCCC1)C1CCCCC1` [15a/b] ({Isonicotinoyl(3-COOH)}-[X8][Tle][Pro(4-oxo)][Chg][Chg]-NH2): the “recovery in plasma determined by HPLC” value in data set [1] is > 75%. For the same compound, the IC50 in data set [2] was determined as 69 nM. Further, in data set [3], the Selectivity amounted to 7.0 and the IC50 amounted to 483 nM.

Regarding `CNC(=O)/C=C/CC[C@H](NC(=O)c1ccncc1C(=O)O)C(=O)N[C@H](C(=O)N1CC(=O)C[C@H]1C(=O)N[C@H](C(=O)N[C@H](C(N)=O)C1CCCCC1)C1CCCCC1)C(C)(C)C` [17a/b] ({Isonicotinoyl(3-COOH)}-[X5][Tle][Pro(4-oxo)][Chg][Chg]-NH2), the “recovery in plasma determined by HPLC” value in data set [1] was > 75%. The half-maximal inhibitory concentration (IC50) in data set [2] came to 41 nM. For the same compound, in data set [3], the Selectivity amounted to 7.2 and the IC50 is 295 nM.

In the case of `COC(=O)/C=C/CC[C@H](NC(=O)c1ccncc1C(=O)O)C(=O)N[C@H](C(=O)N1CC(=O)C[C@H]1C(=O)N[C@H](C(=O)N[C@H](C(=O)O)C1CCCCC1)C1CCCCC1)C(C)(C)C` [34a/b] ({Isonicotinoyl(3-COOH)}-[X1][Tle][Pro(4-oxo)][Chg][Chg]-OH), the “recovery in plasma determined by HPLC” value in data set [1] is recorded as > 75%. In addition, the IC50 in data set [2] stood at 123 nM. In data set [3], the Selectivity came out at 2.7 and the half-maximal inhibitory concentration (IC50) was 356 nM.

`COC(=O)/C=C/CC[C@H](NC(=O)c1ccncc1C(=O)O)C(=O)N[C@H](C(=O)N1CC(=O)C[C@H]1C(=O)N[C@H](C(=O)N[C@H](C(=O)OC)C1CCCCC1)C1CCCCC1)C(C)(C)C` [35a/b] ({Isonicotinoyl(3-COOH)}-[X1][Tle][Pro(4-oxo)][Chg][Chg]-OMe): the “recovery in plasma determined by HPLC” value in data set [1] is > 75%. Besides, in data set [2], the IC50 was found to be 86 nM. Further, in data set [3], the Selectivity turned out to be 2.3 and the half-maximal inhibitory concentration (IC50) turned out to be 198 nM.

Turning to `CNC(=O)[C@@H](NC(=O)[C@@H](NC(=O)[C@@H]1CC(=O)CN1C(=O)[C@@H](NC(=O)[C@H](CC/C=C/C(=O)OC)NC(=O)c1ccncc1C(=O)O)C(C)(C)C)C1CCCCC1)C1CCCCC1` [36a/b] ({Isonicotinoyl(3-COOH)}-[X1][Tle][Pro(4-oxo)][Chg][Chg]-NHMe), the “recovery in plasma determined by HPLC” value in data set [1] was > 75%. The results for the IC50 in data set [2] and in data set [3] were 41 nM and 168 nM, respectively. In data set [3], the Selectivity worked out at 4.1.

In the case of `COC(=O)/C=C/CC[C@H](NC(=O)c1ccncc1C(=O)O)C(=O)N[C@@H](CCSC)C(=O)N1CC(=O)C[C@H]1C(=O)N[C@H](C(=O)N[C@H](C(N)=O)C1CCCCC1)C1CCCCC1` [37a/b] ({Isonicotinoyl(3-COOH)}-[X1]M[Pro(4-oxo)][Chg][Chg]-NH2), the “recovery in plasma determined by HPLC” value in data set [1] was > 75%. Further, the half-maximal inhibitory concentration (IC50) in data set [2] stood at 69 nM. Besides, in data set [3], the Selectivity is 4.7 and the IC50 was determined as 324 nM.

For `COC(=O)/C=C/CC[C@H](NC(=O)c1nccnc1C(=O)O)C(=O)N[C@H](C(=O)N1CC(=O)C[C@H]1C(=O)N[C@H](C(=O)N[C@H](C(N)=O)C1CCCCC1)C1CCCCC1)C(C)(C)C` [Compound 3] (X7-[X1][Tle][Pro(4-oxo)][Chg][Chg]-NH2), in data set [1], the recovery at 2 h is > 75%. Further, the concentration for half-maximal inhibition (IC50) in data set [2] was 20 nM; in data set [3] it was 16 nM. Moreover, the Selectivity in data set [3] was determined as 0.8.

Turning to `COC(=O)/C=C/CC[C@H](NC(=O)c1cc(C(=O)O)cc([N+](=O)[O-])c1)C(=O)N[C@H](C(=O)N1CC(=O)C[C@H]1C(=O)N[C@H](C(=O)N[C@H](C(N)=O)C1CCCCC1)C1CCCCC1)C(C)(C)C` [Compound 4] ({Benzoyl(3-COOH,5-NO2)}-[X1][Tle][Pro(4-oxo)][Chg][Chg]-NH2), the recovery at 2 h in data set [1] was > 75%. The IC50 in data set [2] was 13 nM; in data set [3] it was 14 nM. The compound also had a Selectivity in data set [3] of 1.1.

With `CCOC(=O)/C=C/CC[C@H](NC(=O)c1cccs1)C(=O)N[C@@H](CC1CC1)C(=O)N1CCC[C@H]1C(=O)N[C@@H](CC(C)C)C(=O)N[C@H](C(N)=O)C1CCCCC1` [Compound 41] (Thiophene2carbonyl-[Nle(5E-ene,6-CO2Et)][Ala(cPr)]PL[Chg]-NH2), the recovery at 2 h in data set [1] was > 75%.

As for `C=C1C[C@@H](C(=O)N[C@@H](CC(C)C)C(=O)N[C@H](C(N)=O)C2CCCCC2)N(C(=O)[C@@H](NC(=O)[C@H](CC/C=C/C(=O)OCC)NC(=O)c2ccc([N+](=O)[O-])cc2C(=O)O)C(C)(C)C)C1` [Compound 42a] (X2-[Nle(5E-ene,6-CO2Et)][Tle][Pro(4-methylene)]L[Chg]-NH2), the recovery at 2 h in data set [1] is > 75%.

Values taken from US11472838B2, “Inhibitors of blood coagulation factor XIII” (Zedira GmbH, priority 2018, dated 2022).
